Test results from patent US20260306465A1, “COMPOUNDS FOR TREATING HEREDITARY SPASTIC PARAPLEGIA” (The Children's Medical Center Corporation, priority 2023, published 2026).

Test system: AP4B1-KO SH-SY5Y cells
Assay: Testing of compounds for AP-4 deficiency: ATG9A translocation in AP4B1-KO SH-SY5Y cells
Details: 24 h, std error in own column
Experimental: SH-SY5Y cell culture. […] Media changes were done every 2-3 days and drugs were administered 24 h before fixation.
Immunocytochemistry. […] SH-SY5Y cells were fixed using 4% PFA, permeabilized with 0.1% saponin in PBS and blocked in 1% BSA/0.01% saponin (blocking solution) in PBS. Primary antibody (diluted in blocking solution) was added for 1 h at room temperature. […] Plates were then gently washed three times with PBS and protected from light.
High-content imaging and automated image analysis. […] Up to 36 fields were acquired in a 6×6 format (96-well plate) using a 40×S Plan Fluor objective (NA 0.60 m, WB 3.6-2.8 mm). Image analysis was performed using a customized image analysis pipeline in MetaXpress (Molecular Devices): Briefly, cells were identified based on the presence of DAPI signal inside a TUBB3-positive cell body. […] ATG9A fluorescence intensity (F.U.) was measured in both compartments in each cell, and the ATG9A ratio was calculated by dividing the ATG9A fluorescence intensity inside the TGN by the ATG9A fluorescence intensity in the remaining cell body:
Z′-factor robust values and strictly standardized median difference (SSMD) were calculated for each plate and only plates that met the predefined quality metrics of a Z′-factor robust 0.3 and SSMD 3 were included in analyses.

SMILES | EC50 (z atg9a ratio)
Oc1cccc2sc(N3CCc4[nH]cnc4C3)nc12 [Compound 10] | 4.418
Cc1cccc2sc(N3CCc4[nH]cnc4C3)nc12 [Compound 17] | 1.185
